Series [1] has as its system P. mirabilis. Put plainly: In vitro glass “bladder” model of catheter encrustation. In kind it is cell-based, Proteus mirabilis. The note with it: for crystalline biofilm formation / Magnesium and phosphorus precipitation on catheter segments (ICP-OES) / catheter biofilm biomass (crystal violet) vs untreated P. mirabilis: 24 h; for crystalline biofilm formation: alone: 1.25 mM AHA, 12.5 mM histamine, 12.5 mM 4-imidazole acetate; for P. mirabilis CFUs in effluent over time / urease-mediated pH increase: tested individually; for urease-mediated pH increase: dose response. Here is the method: A Foley catheter is inserted aseptically into the vessel through an opening at the base, the balloon is inflated, and the catheter is attached to a catheter drainage bag (Fig. 7A). The “bladder” is supplied with sterile AUM at a physiologically relevant flow rate via peristaltic pump from a media reservoir, the “kidney” (Fig. 7A). An initial bacterial inoculum of 10^8 CFU of P. mirabilis was added to the AUM in the “bladder” inner chamber to model robust bacteriuria, followed by initiation of flow (Fig. 7B). The performance of urease-dampening metabolites was evaluated as a reduction in 1) effluent AUM pH over the 24 h study period, and 2) crystalline biofilm formation and ion precipitation on catheter segments 24 h post inoculation. Urease-dampening metabolites and AHA were introduced into the system by direct dissolution into the AUM reservoirs. For each study, both positive (untreated P. mirabilis) and negative (untreated P. mirabilis urease negative mutant) controls were included. Effluent urine samples were collected at 0, 3, 6, 9, 12 and 24 h post inoculation. This preclinical model of catheter encrustation was modified to assess whether prophylactic administration of urease-dampening metabolites increases efficacy of antimicrobials against catheter biofilms, as outlined in Fig. 9A. Each experiment was performed in triplicate. Full details of experimental set up, sample collection, and processing are provided below and in Supplementary Materials.
A previously described glass “bladder” model was used, in which a 500 mL water-jacketed glass vessel is maintained at 37 °C via a circulating water bath, a Foley catheter is inserted and inflated, and artificial urine medium (AUM) is supplied into the “bladder” at a constant flow rate (0.75-1.0 mL/min) through a peristaltic pump[55],[56]. For consistency with the in vitro urease activity assays and the physiologic range of urea in healthy human urine, AUM was supplemented with 500 mM urea[57]. Urease-dampening metabolites of interest were directly dissolved in AUM 500 mM urea, adjusted to a pH of 5.8, and filter sterilized via a 0.2μm filter. “Bladders” were inoculated with 10^8 CFUs of P. mirabilis. Samples were collected from the catheter port at 0, 3, 6, 9, 12, and 24 hours to monitor pH and bacterial CFUs. Catheters segments were processed for CFUs, crystal violet staining of biofilm biomass, and ion composition at 24 h. Full details are provided in the Supplementary Methods.
236 and the segments were air dried for 15 min. Catheter segments were stained with 1.0 ml 0.1%
237 crystal violet for 10 min, washed by gentle dunking in 1X phosphate-buffered saline (PBS) to
238 remove excess stain, and solubilized in a microcentrifuge tube containing 750μL of 1% SDS
239 95% ethanol and vortexed for 5 minutes. Crystal violet absorbance (OD570) was measured in a
240 BioTek Synergy H1 microplate reader and blanked using cell-free control wells for each biofilm
243 Catheter segment biofilm viability. Catheter segments were washed by gentle dunking in 1X
244 phosphate-buffered saline (PBS) to remove any remaining planktonic bacteria and residual AUM
245 from the catheter lumen. Catheter segments were then placed in a microcentrifuge tube
246 containing 1mL of 1X PBS and vortexed for 5 minutes to solubilize the biofilm. Samples
247 underwent serial 10-fold dilutions and were spiral plated (Eddy Jet 2; Neutec Group Inc.,
248 Farmingdale, NY) onto low-salt LB agar for enumeration of CFU using a ProtoCOL 3 automated
249 colony counter (Synbiosis).
251 Catheter segment elemental composition. Catheter segments were placed in a microcentrifuge

The nature of series [2]: Buffering capacity assay (NaOH titration, phenol red). The format is physicochemical. Conditions: high concentrations of metabolite in potassium phosphate buffer with phenol red. As to the method: Known concentrations of sodium hydroxide were added to each well of a 96 well plate in combination with candidate dampening metabolite of interest buffered 1:10 in potassium phosphate buffer pH7. 0.01% phenol red was added to each well, and absorbance (OD562) was measured in a Synergy H1 plate reader (BioTek).

On the set-up of series [3]: method as in PMID 9792207. The note with it: administered into the lateral ventricle; cited from earlier work.
The test system of series [4] is P. mirabilis. Nature of the series: Growth and viability of P. mirabilis incubated in dampening metabolites. The format is cell-based, Proteus mirabilis. Here is the method:
345 Supplementary Figure 5. Growth and viability of P. mirabilis incubated in dampening
346 metabolites. (A-B) P. mirabilis was cultured for ~18 hours in LB broth, then diluted 1:100 into
347 fresh LB broth with (A) the highest concentration of each dampening metabolites that was tested
348 for urease-dampening activity or (B) serial dilutions of D-imidazole lactate. Bacterial
349 suspensions were incubated at 37 °C with double-orbital shaking, and OD600 was measured
350 every 15 minutes for 18 hours. Representative growth curves (A-B) show means and standard
351 deviations from three technical replicates. (C-E) Viability of P. mirabilis incubated in serial
352 dilutions of D-imidazole lactate. Overnight cultures were subcultured to mid log phase, washed
353 in potassium phosphate buffer, and diluted 1:10 in either (C,D) potassium phosphate buffer or
354 human urine (E) with and without D-imidazole lactate. Samples were incubated at 37°C with
(§1) (1 picture or pasted object on this page, not shown here)

The test system of a further series is P. stuartii urease. Put plainly: Urease activity assay, whole cell P. stuartii BE2467. The format is cell-based, Providencia stuartii.
In another series the test system is P. stuartii BE2467. Put plainly: Growth and viability of P. stuartii in dampening metabolites. The format is cell-based, Providencia stuartii. As to the method: 478 Supplementary Figure 20. Growth of M. morganii, P. stuartii and UTI MRSA incubated in
479 dampening metabolites. M. morganii TA43 (A,D,G), P. stuartii BE2467(B,E,H), UTI MRSA
480 (C,F,I) were incubated in urease dampening metabolites to assess impact on growth. Bacteria
481 were cultured for ~18 hours in LB (Mm and Ps) or BHI (MRSA) broth, then diluted 1:100 into
482 fresh broth with (A-C) the highest concentrations of dampening metabolites assessed for urease
483 inhibition or (D-F) serial dilutions of D-imidazole lactate. Bacterial suspensions were incubated
484 at 37 °C with double-orbital shaking, and OD600 was measured every 15 minutes for 18 hours.
485 Error bars represent mean ± standard deviation (SD) from at least 3 technical replicates, and
486 graphs are representative of 3 independent biologic experiments. (G-I) Viability of incubated in
487 Mm, Ps or MRSA incubated in serial dilutions of D-imidazole lactate. Overnight cultures were
as §1
488 subcultured to mid log phase, washed in potassium phosphate buffer, and diluted 1:10 in
489 potassium phosphate buffer with and without D-imidazole lactate. Samples (n=3) were incubated
490 at 37°C with aeration for one hour then plated and enumerated for colony forming units (CFU).

Series [5] deals with isolated guinea pig bladders. The note with it: cited from earlier work.
Where [6] appears, read: alone: 5 mM AHA, 25 mM histamine, 25 mM 4-imidazole acetate.
Where [7] appears, read: alone: 5 mM AHA, 25 mM histamine, 25 mM 4-imidazole acetate, nucleation point ~ pH 8.

Where a name gives a salt, the structure may show the parent alone.

Protocol for P. stuartii urease: Urease activity was measured as described previously in triplicate with at least three biological replicates[21]. Briefly, bacteria were cultured for ~18 h in LB broth, concentrated to an OD600 of 4, washed once in saline, and diluted (1:10 for P. mirabilis and 1:50 for P. stuartii and M. morganii) into candidate dampening metabolites in potassium phosphate buffer or human urine pH7 and supplemented with 500 mM urea and 0.01% phenol red. Bacterial suspensions were distributed into a 96-well plate, incubated at 37 °C with double-orbital shaking in a Synergy H1 plate reader (BioTek), and absorbance (OD562) was measured every 60 seconds for 180 minutes. Isogenic urease mutants (Supplementary Data 1) served as negative controls for P. mirabilis and P. stuartii and a vehicle control served as a negative control for M. morganii.

In the case of `Cl.O=C(O)Cc1cnc[nH]1` [4-imidazole acetate, 2-(1H-Imidazol-5-yl)acetic acid hydrochloride], in the series on P. mirabilis [1], the crystalline biofilm formation result is reported as “no impact on crystalline biofilm formation”, the “P. mirabilis CFUs in effluent over time” value is “no meaningful differences between CFUs over time” and the “urease-mediated pH increase” value was “perturbed urease-mediated pH increase in a dose-dependent manner”. In the series with P. mirabilis [1] (setting [6]), the “Magnesium and phosphorus precipitation on catheter segments (ICP-OES)” value is “reduced, although the reduction was not statistically significant”; the “catheter biofilm biomass (crystal violet) vs untreated P. mirabilis” value is recorded as “significantly reduced biofilm biomass”. Besides, in the series on P. mirabilis [1] (alone, lower concentrations), the “pH of AUM collected from “bladders” over 24 h” value (“pH of AUM collected … over 24 h” below) is reported as “failed to restrict pH”. In the series with P. mirabilis [1] (setting [7]), the “pH of AUM collected … over 24 h” value was “never surpassed the nucleation point”. Besides, in series [2], the “buffering capacity: absorbance (OD562) across NaOH concentrations” value is recorded as “consistent reduction in absorbance compared to the control”. The “blood pressure in cats” value in series [3] is listed as “dose-dependent decrease in blood pressure”.
On to `O.O=C(O)[C@H](O)Cc1cnc[nH]1` [D-imidazole lactate, D-imidazolelactic acid hydrate], for which, in the series with P. mirabilis [4] (LB broth, 18 hours, OD600), the “Growth of P. mirabilis in LB broth” value is “perturbed”. Further, the “antimicrobial activity against P. mirabilis” value with P. mirabilis [4] (incubation in human urine) is “less-pronounced activity”; with P. mirabilis [4] (incubation in potassium phosphate), “robust antimicrobial activity”. The “urease activity in P. stuartii” value in the series with P. stuartii urease is on record as “most potent urease inhibition”. Further, in the series on P. stuartii BE2467 (LB broth), the “growth of P. stuartii” value was “perturbed growth”. Moreover, in the series on P. stuartii BE2467 (incubation in potassium phosphate, CFU), the “antimicrobial activity against P. stuartii BE2467” value is reported as “robust antimicrobial activity”.
In the case of `NCCc1c[nH]cn1` [Histamine, histamine dihydrochloride], in the series on P. mirabilis [1], the crystalline biofilm formation entry is “no impact on crystalline biofilm formation”, the “P. mirabilis CFUs in effluent over time” value is reported as “no meaningful differences between CFUs over time” and the “urease-mediated pH increase” value is reported as “perturbed urease-mediated pH increase in a dose-dependent manner”. In addition, in the series on P. mirabilis [1] (setting [6]), the “Magnesium and phosphorus precipitation on catheter segments (ICP-OES)” value is listed as “reduced, although the reduction was not statistically significant”; the “catheter biofilm biomass (crystal violet) vs untreated P. mirabilis” value is on record as “significantly reduced biofilm biomass”. In addition, in the series with P. mirabilis [1] (alone, lower concentrations), the “pH of AUM collected … over 24 h” value is given as “failed to restrict pH”. Further, in the series on P. mirabilis [1] (setting [7]), the “pH of AUM collected … over 24 h” value is on record as “never surpassed the nucleation point”. Also, the “response of isolated guinea pig bladders” value in series [5] is “induce a contractile response”.

The values are drawn from PMC12583827, “Harnessing microbial-derived metabolites in the urinary tract to prevent infection induced catheter encrustation” (Nature Communications, 2025).
